The source of these data is patent publication US10752609B2, “GSK-3 inhibitors” (priority 2016, dated 2020).

pIC50: −log10 of the molar value. Where two headings read alike, the source gives them in different places.

In one test the target is GSK3β (Homo sapiens, UniProt P49841). Kind of test: GSK3β kinase assay (Caliper LabChip3000 mobility shift, fluoresceinated peptide substrate). The format is biochemical. To be noted: for IC50: 250 pM enzyme, 20 uM ATP, 1.5 uM peptide, 20 hours room temperature, first value of cell GSK3β/GSK3α, read-out: GSK3β (nM), IC50.
Sequence of GSK3β (P49841 whole entry, species assumed): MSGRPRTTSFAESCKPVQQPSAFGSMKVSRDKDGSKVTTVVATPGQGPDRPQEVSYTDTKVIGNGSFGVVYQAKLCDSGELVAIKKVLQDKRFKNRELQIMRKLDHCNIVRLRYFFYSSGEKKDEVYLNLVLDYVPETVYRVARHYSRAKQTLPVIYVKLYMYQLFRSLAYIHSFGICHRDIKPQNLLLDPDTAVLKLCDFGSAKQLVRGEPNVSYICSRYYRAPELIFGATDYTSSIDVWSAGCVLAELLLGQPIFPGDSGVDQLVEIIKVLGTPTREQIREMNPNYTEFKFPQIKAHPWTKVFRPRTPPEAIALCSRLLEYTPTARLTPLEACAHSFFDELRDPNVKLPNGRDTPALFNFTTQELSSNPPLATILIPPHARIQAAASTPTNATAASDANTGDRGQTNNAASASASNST
The next test has as its target GSK3α (Homo sapiens, UniProt P49840). Kind of test: GSK3α kinase assay (Caliper LabChip3000 mobility shift, fluoresceinated peptide substrate).
A further test relates to pTau. Kind of test: pTau assay (no method described). The format is cell-based.

Sequence of GSK3α (P49840 whole entry, species assumed): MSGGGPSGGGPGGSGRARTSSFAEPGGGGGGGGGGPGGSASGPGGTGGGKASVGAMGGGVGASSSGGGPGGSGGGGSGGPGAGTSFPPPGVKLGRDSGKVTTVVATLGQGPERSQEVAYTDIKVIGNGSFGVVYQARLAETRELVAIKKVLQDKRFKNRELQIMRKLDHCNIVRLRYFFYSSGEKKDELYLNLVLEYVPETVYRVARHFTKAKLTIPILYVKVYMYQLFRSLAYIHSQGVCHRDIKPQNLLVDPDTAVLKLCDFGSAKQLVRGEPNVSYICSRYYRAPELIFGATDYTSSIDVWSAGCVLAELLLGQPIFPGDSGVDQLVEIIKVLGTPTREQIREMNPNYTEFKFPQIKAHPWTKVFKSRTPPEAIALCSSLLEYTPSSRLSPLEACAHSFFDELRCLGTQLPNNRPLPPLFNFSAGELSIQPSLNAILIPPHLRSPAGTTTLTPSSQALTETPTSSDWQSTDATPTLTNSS

Usually IC50 stands for the midpoint of a concentration-inhibition curve. One may read the pIC50 as the negative decadic logarithm of the IC50, by convention in mol/L. On to `O=C(Nc1cnccc1-c1ccc(F)cc1)c1ccnc(Nc2ccccc2)n1` [Example 43, N-(4-(4-Fluorophenyl)pyridin-3-yl)-2-(phenylamino)pyrimidine-4-carboxamide], for which, at GSK3β, the IC50 is 0.25 nM. The pIC50 at GSK3α is 9.72; in the test with pTau, 7.47.

`CC(Nc1nccc(C(=O)Nc2cnccc2OCC(F)(F)F)n1)C(C)(C)C` (stereo not drawn) [Example 126, 2-((3,3-Dimethylbutan-2-yl)amino)-N-(4-(2,2,2-trifluoroethoxy)pyridin-3-yl)pyrimidine-4-carboxamide]: the IC50 at GSK3β amounted to 1.1 nM. Further, the pIC50 at GSK3α was 9.39; in the test with pTau it was 6.96.

With `O=C(Nc1cnccc1OCC(F)(F)F)c1ccnc(Nc2ccc(F)cc2F)n1` [Example 113, 2-((2,4-Difluorophenyl)amino)-N-(4-(2,2,2-trifluoroethoxy)pyridin-3-yl)pyrimidine-4-carboxamide], the IC50 on GSK3β was found to be 5.3 nM. The pIC50 is 8.40 at GSK3α and 6.52 in the test with pTau.

With `N#Cc1ccc(Nc2nccc(C(=O)Nc3cnccc3OCC(F)(F)F)n2)cn1` [Example 82, 2-((6-Cyanopyridin-3-yl)amino)-N-(4-(2,2,2-trifluoroethoxy)pyridin-3-yl)pyrimidine-4-carboxamide], the IC50 at GSK3β is 0.18 nM. Moreover, the pIC50 at GSK3α was 10.05; in the test on pTau, 8.55.

For the compound `Cn1ccc(Nc2nccc(C(=O)Nc3cnccc3-c3ccccc3)n2)n1` [Example 98, 2-((1-Methyl-1H-pyrazol-3-yl)amino)-N-(4-phenylpyridin-3-yl)pyrimidine-4-carboxamide], at GSK3β, the IC50 is 46 nM. Moreover, the pIC50 at GSK3α was 7.43; in the test on pTau, 5.59.

`Cc1cc(Nc2nccc(C(=O)Nc3cnccc3-c3ccccc3)n2)ccn1` [Example 36, 2-((2-Methylpyridin-4-yl)amino)-N-(4-phenylpyridin-3-yl)pyrimidine-4-carboxamide]: the pIC50 at GSK3β is 9.08; on GSK3α it was 9.26; in the test with pTau, 7.44.

On to `O=C(Nc1cnccc1-c1ccccc1)c1ccnc(NC2CCCCC2)n1` [Example 156, 2-(Cyclohexylamino)-N-(4-phenylpyridin-3-yl)pyrimidine-4-carboxamide], for which the results for the negative logarithm of the IC50 (pIC50) at GSK3β, on GSK3α and in the test with pTau were 8.68, 8.89 and 6.46, respectively.

Consider `O=C(Nc1cnccc1-c1ccccc1)c1ccnc(NC2CCCOC2)n1` (stereo not drawn) [Example 94, N-(4-Phenylpyridin-3-yl)-2-((tetrahydro-2H-pyran-3-yl)amino)pyrimidine-4-carboxamide], for which the half-maximal inhibitory concentration (IC50) on GSK3β was 5.1 nM. Further, the pIC50 at GSK3α is 8.46; in the test on pTau it was 6.68.

On to `CC(C)OCCCNc1nccc(C(=O)Nc2cnccc2OCC(F)(F)F)n1` [Example 65, 2-((3-Isopropoxypropyl)amino)-N-(4-(2,2,2-trifluoroethoxy)pyridin-3-yl)pyrimidine-4-carboxamide], for which, on GSK3β, the IC50 was 2 nM. Besides, the pIC50 at GSK3α is 8.85; in the test with pTau it was 7.07.

`O=C(Nc1cnccc1OCC(F)(F)F)c1ccnc(NCc2cccc(C(F)(F)F)c2)n1` [Example 139, N-(4-(2,2,2-Trifluoroethoxy)pyridin-3-yl)-2-((3-(trifluoromethyl)benzyl)amino)pyrimidine-4-carboxamide]: the IC50 at GSK3β worked out at 6.3 nM. The figures for the pIC50 on GSK3α and in the test with pTau were 8.27 and 6.24, respectively.

On to `O=C(Nc1cnccc1-c1ccc(F)cc1)c1ccnc(NC2CCCCC2)n1` [Example 150, 2-(Cyclohexylamino)-N-(4-(4-fluorophenyl)pyridin-3-yl)pyrimidine-4-carboxamide], for which, at GSK3β, the IC50 was 0.66 nM. Moreover, the results for the pIC50 on GSK3α and in the test on pTau were 9.24 and 6.92, respectively.

Consider `CC(C)OCCCNc1nccc(C(=O)Nc2cnccc2-c2ccccc2)n1` [Example 42, 2-((3-Isopropoxypropyl)amino)-N-(4-phenylpyridin-3-yl)pyrimidine-4-carboxamide], for which the IC50 at GSK3β was found to be 0.88 nM. The results for the pIC50 on GSK3α and with pTau were 9.23 and 7.03, respectively.

For `O=C(Nc1cnccc1OCC(F)(F)F)c1ccnc(NCc2ccccc2C(F)(F)F)n1` [Example 137, N-(4-(2,2,2-Trifluoroethoxy)pyridin-3-yl)-2-((2-(trifluoromethyl)benzyl)amino)pyrimidine-4-carboxamide], the IC50 on GSK3β was 4.1 nM. The pIC50 is 8.64 on GSK3α and 6.46 in the test with pTau.

Turning to `CC(C)CNc1ccc(Nc2nccc(C(=O)Nc3cnccc3-c3ccccc3)n2)cn1` [Example 100, 2-((6-(Isobutylamino)pyridin-3-yl)amino)-N-(4-phenylpyridin-3-yl)pyrimidine-4-carboxamide], at GSK3β, the half-maximal inhibitory concentration (IC50) stood at 93 nM. Besides, the values for the pIC50 at GSK3α and in the test on pTau were 7.19 and 5.00, respectively.

On to `CN1C(C)(C)CC(Nc2nccc(C(=O)Nc3cnccc3OCC(F)(F)F)n2)CC1(C)C` [Example 145, 2-((1,2,2,6,6-Pentamethylpiperidin-4-yl)amino)-N-(4-(2,2,2-trifluoroethoxy)pyridin-3-yl)pyrimidine-4-carboxamide], for which the IC50 at GSK3β was determined as 250 nM. Also, the pIC50 on GSK3α was 6.34; in the test with pTau, 5.00.

With `O=C(Nc1cnccc1OCC(F)(F)F)c1ccnc(Nc2ccc(F)nc2)n1` [Example 84, 2-((6-Fluoropyridin-3-yl)amino)-N-(4-(2,2,2-trifluoroethoxy)pyridin-3-yl)pyrimidine-4-carboxamide], the IC50 on GSK3β came to 0.24 nM. The pIC50 on GSK3α was 9.96; in the test on pTau, 8.32.

On to `O=C(Nc1cnccc1-c1ccccc1)c1ccnc(Nc2ccc(C(F)(F)F)cc2Cl)n1` [Example 20, 2-((2-Chloro-4-(trifluoromethyl)phenyl)amino)-N-(4-phenylpyridin-3-yl)pyrimidine-4-carboxamide], for which, on GSK3β, the IC50 came out at 24 nM. Also, the negative logarithm of the IC50 (pIC50) at GSK3α is 7.80; in the test with pTau, 5.24.

As to `O=C(Nc1cncc(-c2ccccc2F)c1)c1ccnc(Nc2cccc(C(F)(F)F)c2)n1` [Example 185, N-(5-(2-Fluorophenyl)pyridin-3-yl)-2-((3-(trifluoromethyl)phenyl)amino)pyrimidine-4-carboxamide], the IC50 on GSK3β came to 5.9 nM. Besides, the pIC50 on GSK3α is 8.64; in the test on pTau it was 6.28.

For the compound `CC(C)(C)CNc1nccc(C(=O)Nc2cnc(F)cc2N2CCOCC2)n1` [Example 173], the figures for the pIC50 at GSK3β, on GSK3α and in the test with pTau were 8.96, 9.31 and 7.16, respectively.

For `O=C(Nc1cnccc1OCC(F)(F)F)c1ccnc(NCc2ccccc2)n1` [Example 128, 2-(Benzylamino)-N-(4-(2,2,2-trifluoroethoxy)pyridin-3-yl)pyrimidine-4-carboxamide], at GSK3β, the IC50 was 1.2 nM. Besides, the values for the pIC50 on GSK3α and in the test with pTau were 8.89 and 6.68, respectively.

For `O=C(Nc1cncnc1OCC(F)(F)F)c1ccnc(Nc2ccc(Cl)cc2F)n1` [Example 71, 2-((4-Chloro-2-fluorophenyl)amino)-N-(4-(2,2,2-trifluoroethoxy)pyrimidin-5-yl)pyrimidine-4-carboxamide], the IC50 at GSK3β was 8 nM. The results for the pIC50 at GSK3α and in the test with pTau were 8.38 and 6.00, respectively.

On to `Cc1ccc(Nc2nccc(C(=O)Nc3cnccc3-c3ccccc3)n2)cc1` [Example 8, N-(4-Phenylpyridin-3-yl)-2-(p-tolylamino)pyrimidine-4-carboxamide], for which the IC50 at GSK3β is 0.31 nM. For the same compound, the figures for the negative-log IC50 (pIC50) at GSK3α and in the test with pTau were 9.66 and 7.15, respectively.
